Like-named read-outs stand apart in the source and are kept apart here. Square brackets hold non-standard residues; d marks the D form. Ends that are not written are not given here. Peptide text beside a SMILES is read from it. hArg(Et2) = CCN=C(NCC)NCCCC[C@H](N)C(=O)O; Gly(NCH2CH2Ph) = O=C(O)CNCCc1ccccc1; PEG6 = NCCOCCOCCOCCOCCOCCOCCC(=O)O; Hyp = O=C(O)[C@@H]1C[C@@H](O)CN1; Hpg = N[C@H](C(=O)O)c1ccc(O)cc1; Aoc(2) = CCCCCC[C@H](N)C(=O)O; Phg = N[C@H](C(=O)O)c1ccccc1; Nle = CCCC[C@H](N)C(=O)O

Assay [1] has as its system orexin-neuron ablated mice. As to conditions: ICV; cited from earlier work.
The test system of assay [2] is OX2R. As to conditions: subcutaneous, cited from earlier work.
Assay [3] deals with individuals with NT1. As to conditions: initial clinical studies; cited from earlier work.
Assay [4] concerns the target T1, OX2R (Mus musculus, UniProt P58308).
T1 construct: host or cells: mice in vivo (WT, orexin ligand-deficient, NT1 model, OX2R-knockout)
T1 sequence (P58308 1-460): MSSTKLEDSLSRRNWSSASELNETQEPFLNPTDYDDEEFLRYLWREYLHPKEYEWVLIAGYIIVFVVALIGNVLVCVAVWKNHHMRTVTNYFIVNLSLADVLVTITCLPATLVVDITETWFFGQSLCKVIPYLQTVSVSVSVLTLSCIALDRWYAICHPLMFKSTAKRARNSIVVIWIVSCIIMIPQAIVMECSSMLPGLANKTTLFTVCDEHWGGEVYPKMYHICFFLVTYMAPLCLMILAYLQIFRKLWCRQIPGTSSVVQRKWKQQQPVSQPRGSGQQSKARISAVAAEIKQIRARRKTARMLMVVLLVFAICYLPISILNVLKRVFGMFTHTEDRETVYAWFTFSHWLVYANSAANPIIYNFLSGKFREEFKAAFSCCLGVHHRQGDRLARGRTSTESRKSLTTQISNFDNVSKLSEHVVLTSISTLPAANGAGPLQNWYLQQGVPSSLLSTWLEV
The conditions noted are these: cited from earlier work.

Assay [5] addresses T2, human orexin type 1 receptor (hOX1R) (Homo sapiens, UniProt O43613).
T2 construct: expressed in transfected cells
T2 sequence (O43613 1-425): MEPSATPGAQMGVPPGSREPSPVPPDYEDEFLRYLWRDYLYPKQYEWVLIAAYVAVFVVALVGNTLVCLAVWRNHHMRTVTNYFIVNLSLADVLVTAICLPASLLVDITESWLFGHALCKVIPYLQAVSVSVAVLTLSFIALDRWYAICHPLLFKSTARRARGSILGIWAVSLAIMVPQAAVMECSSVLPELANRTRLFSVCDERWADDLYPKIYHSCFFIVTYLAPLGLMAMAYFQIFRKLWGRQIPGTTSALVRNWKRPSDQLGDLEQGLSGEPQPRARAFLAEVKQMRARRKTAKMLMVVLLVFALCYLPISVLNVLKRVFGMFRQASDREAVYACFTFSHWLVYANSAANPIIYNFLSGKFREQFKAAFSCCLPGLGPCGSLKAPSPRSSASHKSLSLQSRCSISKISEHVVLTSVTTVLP
Nature of the assay: Measurement of orexin type 1 receptor agonist activity (FLIPR TETRA intracellular Ca2+ fluorescence). It is filed as cell-based. As to conditions: CHO cells expressing hOX1R; agonist activity, Ca2+ fluorescence; read-out: hOX1 pEC50 (converted).

Assay [6] addresses T3, human orexin type 2 receptor (hOX2R) (Homo sapiens, UniProt O43614).
T3 construct: expressed in transfected cells
T3 sequence (O43614 1-444): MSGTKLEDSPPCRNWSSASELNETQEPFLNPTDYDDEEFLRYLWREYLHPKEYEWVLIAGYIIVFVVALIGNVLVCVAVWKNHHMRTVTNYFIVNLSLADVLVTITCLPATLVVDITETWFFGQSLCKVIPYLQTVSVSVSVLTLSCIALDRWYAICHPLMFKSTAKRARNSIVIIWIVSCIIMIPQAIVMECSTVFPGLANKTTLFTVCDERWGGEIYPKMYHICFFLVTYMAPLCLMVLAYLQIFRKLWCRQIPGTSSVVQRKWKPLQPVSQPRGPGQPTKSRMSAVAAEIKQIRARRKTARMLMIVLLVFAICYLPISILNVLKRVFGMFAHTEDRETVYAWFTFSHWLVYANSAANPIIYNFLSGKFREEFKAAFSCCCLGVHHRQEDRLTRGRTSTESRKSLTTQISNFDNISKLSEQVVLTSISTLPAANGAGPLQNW
In words: Measurement of orexin type 2 receptor agonist activity (FLIPR TETRA intracellular Ca2+ fluorescence). In kind it is cell-based. As to conditions: CHO cells expressing hOX2R; agonist activity, Ca2+ fluorescence; read-out: hOX2 pEC50 (converted).

As for “orexin A (QPLPDCCRQKTCSCRLYELLHGAGNHAAGILTL; ends and bridges not checked; cysteine pairing not given here; UniProt O43612 34-66, looked up) [orexin A (OXA), orexin neuropeptide cleaved from prepro-orexin]”, in assay [1], the cataplexy-like behavior entry is “decreases cataplexy-like behavior” and the time spent awake entry is listed as “increase time spent awake”.
For `COC(=O)N1CCC[C@H](NS(C)(=O)=O)[C@@H]1CO[C@H]1CC[C@@H](c2ccccc2)CC1` [TAK-925], the wakefulness result is recorded as “not in OX2R-knockout mice” in assay [2] (OX2R-knockout mice), “modestly increased wakefulness” in assay [2] (WT mice) and “substantial levels of increased wakefulness” in assay [3]. In assay [3], the cataplexy result was “trends for decreasing cataplexy”.
Take `COc1ccc(-c2cccc(C(=O)N(C)C)c2)cc1S(=O)(=O)Nc1cccc(NCCNC(=O)c2ccccc2N(C)C)c1` [YNT-185]: the “sleep-onset REM periods and cataplexy-like events” value in assay [4] (NT1 mouse model) was “decreases sleep-onset REM periods and cataplexy-like events”. Further, the wakefulness result in assay [4] (intraperitoneally or ICV, wild type (WT) and orexin ligand-deficient mice) was “modestly increases wakefulness”.
For the compound `CCCC[C@H](NC(=O)[C@@H](NC(=O)[C@H](CC(C)C)NC(=O)[C@@H](NC(=O)CNC(=O)[C@@H](NC(=O)[C@H](C)NC(=O)[C@H](Cc1c[nH]cn1)NC(=O)[C@H](CC(N)=O)NC(=O)CN(CCc1ccccc1)C(=O)[C@H](CCCNC(=N)N)NC(=O)CCOCCOCCOCCOCCOCCOCCN)c1ccccc1)[C@@H](C)CC)[C@@H](C)O)C(N)=O` [Peptide 21] (H-[PEG6]R[Gly(NCH2CH2Ph)]NHA[Phg]GILT[Nle]-NH2), the EC50 in assay [5] is more than 10 nM; in assay [6], less than 0.1 nM.
The like results for `CCCCCC[C@H](NC(=O)[C@@H](NC(=O)[C@H](CC(C)C)NC(=O)[C@@H](NC(=O)CNC(=O)[C@@H](NC(=O)[C@H](C)NC(=O)[C@@H]1C[C@@H](O)CN1C(=O)[C@H](CC(N)=O)NC(=O)CN(CCc1ccccc1)C(=O)[C@@H](N)CCCCN/C(=N/CC)NCC)c1ccc(O)cc1)[C@@H](C)CC)[C@@H](C)O)C(N)=O` [Peptide 7] (H-[hArg(Et2)][Gly(NCH2CH2Ph)]N[Hyp]A[Hpg]GILT[Aoc(2)]-NH2) were, in that order, more than 10 nM and less than 0.1 nM.
